# Source: PMC5923120, “Acylhydrazones as Antifungal Agents Targeting the Synthesis of Fungal Sphingolipids” (Antimicrobial Agents and Chemotherapy, 2018)
# Tests used:
# C. neoformans [1] = assay: In vitro killing assay; conditions: minimum concentration that kills 100% of C. neoformans cells in 48 h
# Procedure: C. neoformans cells from a culture grown overnight were washed in PBS and resuspended in YNB buffered with HEPES at pH 7.4. The cells were counted, and 2 × 10^4 cells were incubated with different concentrations of the drugs in a final volume of 10 ml with a final concentration of 0.5% DMSO. The tubes were then incubated at 37°C with 5% CO2 on a rotary shaker at 200 rpm. Aliquots were taken at the time points indicated and diluted, and 100-µl portions were plated onto YPD plates.
# Aspergillus fumigatus = assay: Mouse model of invasive pulmonary aspergillosis; assay type: in vivo, mice; conditions: oral 20 mg/kg/day; for lung fungal burden (CFU) of surviving mice: at the endpoint, data not shown; for mice that survived: immunosuppressed mice, after 15 days
# Procedure: For survival study, 8-week-old CBA/J (Envigo) male mice were used. They were divided into sets of 10 mice for each treatment or control group. The day prior to infection, the mice were immunosuppressed by using triamcinolone acetonide (1 mg/mouse) subcutaneously ([40]). On day 0, mice were infected intranasally with 20 μl of a suspension containing 2 × 10^4 conidia of A. fumigatus strain Af293 and were treated through gavage with 20 mg/kg/day of BHBM, D13, or voriconazole (as a drug control) in a final volume of 100 μl of 30% PEG in saline buffer. The untreated control group mice received 100 μl of 30% PEG in saline buffer. Mice were fed ad libitum and were given 50% grapefruit juice in place of normal drinking water to avoid the liver metabolism of the drugs ([41]). Mice were monitored every day for discomfort and sacrificed subsequently.
# C. albicans = assay: Mouse model of invasive candidiasis; assay type: in vivo, mice; conditions: oral gavage 20 mg/kg/day, i.v. infection with 10^4 cells of C. albicans, after 21 days
# C. neoformans [2] = assay: Mouse model of cryptococcosis; assay type: in vivo, mice; conditions: for mice that survived: treatment immediately after intranasal infection, 40 days
# [3] = biological target: human ether-a-go-go-related gene (hERG) potassium channel (Homo sapiens, UniProt Q12809); assay: hERG patch clamp assay; assay type: cell-based
# Sequence of human ether-a-go-go-related gene (hERG) potassium channel (Q12809 whole entry): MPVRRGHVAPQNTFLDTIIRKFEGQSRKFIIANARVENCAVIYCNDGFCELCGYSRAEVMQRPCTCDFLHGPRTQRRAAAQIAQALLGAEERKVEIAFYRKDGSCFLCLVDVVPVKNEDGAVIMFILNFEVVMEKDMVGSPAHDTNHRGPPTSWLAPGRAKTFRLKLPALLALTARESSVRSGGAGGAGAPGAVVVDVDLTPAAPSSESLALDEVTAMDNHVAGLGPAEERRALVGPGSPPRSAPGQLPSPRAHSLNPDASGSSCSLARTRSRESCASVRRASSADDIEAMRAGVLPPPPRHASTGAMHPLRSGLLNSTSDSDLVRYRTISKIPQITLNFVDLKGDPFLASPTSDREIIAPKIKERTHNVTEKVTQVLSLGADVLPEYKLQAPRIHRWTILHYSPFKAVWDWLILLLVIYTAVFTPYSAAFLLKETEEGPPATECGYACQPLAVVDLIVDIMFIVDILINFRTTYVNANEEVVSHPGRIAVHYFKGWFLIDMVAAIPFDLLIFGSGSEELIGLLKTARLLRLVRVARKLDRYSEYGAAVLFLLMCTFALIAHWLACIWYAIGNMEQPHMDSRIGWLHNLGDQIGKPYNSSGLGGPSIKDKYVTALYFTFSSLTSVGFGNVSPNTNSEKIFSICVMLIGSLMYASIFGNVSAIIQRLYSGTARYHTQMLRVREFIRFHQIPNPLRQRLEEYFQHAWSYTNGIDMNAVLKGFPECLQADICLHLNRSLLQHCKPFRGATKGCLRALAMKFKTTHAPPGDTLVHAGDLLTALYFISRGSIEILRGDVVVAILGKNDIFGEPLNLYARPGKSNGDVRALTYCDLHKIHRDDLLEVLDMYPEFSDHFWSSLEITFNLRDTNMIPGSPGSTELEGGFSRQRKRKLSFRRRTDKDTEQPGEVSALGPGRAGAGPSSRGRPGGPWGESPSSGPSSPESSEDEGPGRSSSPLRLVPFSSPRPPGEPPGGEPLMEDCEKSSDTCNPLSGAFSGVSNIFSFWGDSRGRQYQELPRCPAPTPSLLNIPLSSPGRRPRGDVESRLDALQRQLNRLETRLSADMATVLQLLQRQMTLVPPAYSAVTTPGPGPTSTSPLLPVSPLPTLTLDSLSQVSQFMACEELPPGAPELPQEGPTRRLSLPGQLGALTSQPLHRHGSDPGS
# A549 = assay: In vitro toxicity (MTT), A549; assay type: cell-based; conditions: Homo sapiens, cytotoxicity
# Procedure: (§1) The murine macrophage cell line J774 and human cancer cell lines A549 and HepG2 were maintained in DMEM containing 10% fetal bovine serum (FBS) and 1% penicillin-streptomycin. At passage 7, 10^5 cells/well in DMEM containing 10% FBS were transferred into 96-well plates and cultured for 14 h for the cells to adhere to the wells. The compounds were added to the cells at concentrations ranging from 0.03 to 128 μg/ml. The wells without the compound served as controls. […] After 24 or 48 h, the supernatant was removed and 50 μl of 5-mg/ml 3-(4,5-dimethylthiazol-2-yl)-2,5-diphenyltetrazoliumbromide (MTT) solution in phosphate-buffered saline (PBS) was added to each well. The plates were incubated for an additional 4 h. The formazan crystal formed inside the cell was dissolved by adding 50 μl of dimethyl sulfoxide (DMSO). The optical density was measured at 570 nm.
# J774 = assay: In vitro toxicity (MTT), J774; assay type: cell-based, murine; conditions: Mus musculus, cytotoxicity
# Procedure: as §1
# in vitro = conditions: monkey
# Source text: A commercially available kit was used to examine permeability through the blood-brain barrier (BBB kit MBT-24; Pharmaco Cell Co. Ltd.). This kit allows us to perform a permeability assay using an in vitro reproduction of the blood-brain barrier using monkey brain. Briefly, in a 12-well plate there is a triple culture, with endothelial cells in the luminal part and perycites and astrocytes in the abluminal side connected by tight junctions. The luminal side of the well represents the blood side, whereas the abluminal side represents the brain side. The integrity of the blood-brain barrier is assessed by the measurement of TEER, which indicates the formation of tight junctions. To have an efficient system, the TEER should be >150 Ω cm^2. The kit is kept frozen at −80°C until it is ready to use. […] After that it takes 3 days for the cells to adjust, and then the plate can be used in 4 days for the experiment. For drug testing, after assessing the TEER, the drugs were added in the chosen medium at the desired concentrations and at different time points. At the end of each time point the TEER was measured to assess if the BBB was still intact. After that the medium was collected and subjected to MS to measure the concentration of the samples in the brain side and calculate the permeability value (Papp).
# [4] = Pharmacokinetic studies (plasma concentration); assay type: in vivo, mice
# Procedure: For i.p. study, BHBM and D13 were dissolved in a mixture of cremophore-ethanol (1:1) to prepare a 10-mg/ml stock solution. The stock solution was diluted in PBS to obtain 200-μg/ml and 400-μg/ml solutions for i.p. administrations in C3H/HeN mice (n = 3). The compounds were administered to control (healthy) mice or immunocompromised mice infected with P. murina at doses of 0.8 mg/kg and 1.6 mg/kg via tail vein injection or intraperitoneal injection in a final volume of 100 μl. The mice were sacrificed and blood samples were collected predose and 0.5, 1, 2, 4, 8, 12, and 24 h after administration into K2EDTA-containing tubes. The samples were centrifuged immediately, and plasma was collected and stored at −80°C until bioanalysis. Plasma samples were extracted using methylene chloride.
# Briefly, 50 μl of the plasma sample was taken into a glass vial, and 10 μl of internal standard N′-(3-bromobenzylidene)-4-hydroxybenzohydrazide was added. After the contents of the glass vial were mixed, 1 ml of methylene chloride was added to the vial and the samples were vortex mixed for 30 s, followed by centrifugation for 5 min. Eight hundred microliters of supernatant then was transferred to another tube and evaporated to dryness using a centrifugal evaporator. The residue was reconstituted in 100 μl acetonitrile-water (50:50) solution, mixed, and transferred to mass spectrometry vials. Separation was performed under isocratic reverse-phase chromatographic conditions using a Waters XBridge C18 column (3.5 μm; 2.1 by 100 mm) (Waters, Milford, MA), a Finnigan Surveyor MS pump (Thermo Fisher Scientific), and a Finnigan Micro AS autosampler (Thermo Fisher Scientific).
# The mobile phase consisted of water-acetonitrile with 0.1% formic acid (50:50) run at a flow rate of 200 μl/min. Five-microliter aliquots then were analyzed using an LTQ-FT liquid chromatography-tandem mass spectrometer (LC-MS/MS) with the electrospray source in the positive ion mode (Thermo Fisher Scientific). For i.v. and p.o. administration, the formulation consisted of a 0.5-mg/ml solution of PEG 400-DMA (9:1). A volume of 1.21 mg of D13 was dissolved in 0.242 ml of […] (DMA) by vortexing and sonication, and then 2.178 ml of PEG440 was added with vortexing and sonication until a clear solution was obtained. For a 4-mg/ml solution of PEG 400-DMA (9:1), 2.13 mg of D13 was dissolved in 0.053 ml of DMA by vortexing and sonication, and then 0.479 ml of PEG 440 was added with vortexing and sonication until a clear solution was obtained. For i.v. and p.o. administration of BHBM, the formulation consisted of a 0.5-mg/ml solution of 5% DMSO and 5% solutol in water. A volume of 0.98 mg of BHBM was dissolved in 0.098 ml of DMSO with vortexing and sonication. […]
# Caco-2 cell line = assay: Caco-2 permeability; conditions: human, Caco-2, 2 h, 5 μM, pH 7.4
# Procedure: (§2) The Caco-2 permeability studies were performed as follows. (i) For the preparation of Caco cells, 50-μl and 25-ml volumes of cell culture medium were added to each well of the Transwell insert and reservoir, respectively. The HTS Transwell plates then were incubated at 37°C, 5% CO2 for 1 h before cell seeding. […] (ii) For the preparation of stock solutions, 10 mM stock solutions of test compounds were prepared in DMSO. The stock solutions of positive controls were prepared in DMSO at a concentration of 10 mM. Digoxin and propranolol were used as control compounds in this assay. (iii) For the assessment of cell monolayer integrity, medium was removed from the reservoir and each Transwell insert and replaced with prewarmed fresh culture medium. Transepithelial electrical resistance (TEER) across the monolayer was measured using a Millicell epithelial volt-Ohm measuring system (Millipore, USA). The plate was returned to the incubator once the measurement was done. The TEER value was calculated according to the following equation: TEER measurement (ohms) × area of membrane (cm^2) = TEER value (ohm · cm^2). The TEER value should be greater than 230 Ω · cm^2, which indicates a well-qualified Caco-2 monolayer. (iv) The assay was performed as follows. The Caco-2 plate was removed from the incubator and washed twice with prewarmed Hanks' balanced salt solution (HBSS; with 10 mM HEPES, pH 7.4) and then incubated at 37°C for 30 min. The stock solutions of control compounds were diluted in DMSO to get 1 mM solutions and then diluted with HBSS (10 mM HEPES, pH 7.4) to get 5 μM working solutions. The stock solutions of the test compounds were diluted in DMSO to get 1 mM solutions and then diluted with HBSS (10 mM HEPES, pH 7.4) to get 5 μM working solutions. The final concentration of DMSO in the incubation system was 0.5%. To determine the rate of drug transport in the apical to basolateral direction, 75 μl of 5 μM working solution of test compound was added to the Transwell insert (apical compartment), and the wells in the receiver plate (basolateral compartment) were filled with 235 μl of HBSS (10 mM HEPES, pH 7.4). To determine the rate of drug transport in the basolateral to apical direction, 235 μl of 5 μM working solution of test compound was added to the receiver plate wells (basolateral compartment), and then the Transwell inserts (apical compartment) were filled with 75 μl of HBSS (10 mM HEPES, pH 7.4). Time zero samples were prepared by transferring 50 μl of 5 μM working solution to wells of the 96-deep-well plate, followed by the addition of 200 μl cold acetonitrile or methanol containing appropriate IS. The plates were incubated at 37°C for 2 h. At the end of the incubation, 50-μl samples from donor sides (apical compartment for AP→BL flux and basolateral compartment for BL→AP) and receiver sides (basolateral compartment for AP→BL flux and apical compartment for BL→AP) were transferred to wells of a new 96-well plate, followed by the addition of 4 volumes of cold acetonitrile or methanol containing appropriate IS. […] An aliquot of 100 μl of the supernatant was mixed with an appropriate volume of ultrapure water before LC-MS/MS analysis. To determine the Lucifer yellow leakage after a 2-h transport period, a stock solution of Lucifer yellow was prepared in ultrapure water and diluted with HBSS (10 mM HEPES, pH 7.4) to reach a final concentration of 100 μM. One hundred microliters of the Lucifer yellow solution was added to each Transwell insert (apical compartment), followed by filling the wells in the receiver plate (basolateral compartment) with 300 μl of HBSS (10 mM HEPES, pH 7.4). The plates were incubated at 37°C for 30 min, and 80-μl samples were removed directly from the apical and basolateral wells (using the basolateral access holes) and transferred to wells of new 96-well plates.
# Caco-2 permeability = conditions: human; for Papp A→B at 2 h, 5 μM / Papp B→A at 2 h, 5 μM: Caco-2, pH 7.4
# Procedure: as §2
# [5] = i.p. 1.2 mg/kg/day, treatment started 5 days after infection
# [6] = oral 20 mg/kg/day starting the day of infection
# [7] = oral 20 mg/kg/day, 32 days posttreatment, data not shown
Compound,K100* (C. neoformans [1]),lung fungal burden (CFU) of surviving mice (Aspergillus fumigatus),mice that survived (Aspergillus fumigatus),mice that survived (C. albicans),mice that survived (C. neoformans [2]; i.p. 1.2 mg/kg/day),mice that survived until the end of the experiment (C. neoformans [2]; [6]),IC50 [3],IC50 (A549),IC50 (J774),Papp at 5 min (in vitro),Papp at 15 min (in vitro),Papp at 30 min (in vitro),time up to which detected in plasma ([4]; i.p. administration),"Papp A→B at 2 h, 5 μM (Caco-2 permeability)","Papp B→A at 2 h, 5 μM (Caco-2 permeability)","recovery at 2 h, 5 μM (Caco-2 permeability; Caco-2, pH 7.4, Recovery AP→BL)","recovery at 2 h, 5 μM (Caco-2 permeability; Caco-2, pH 7.4, Recovery BL→AP)",further results
"Cc1ccccc1C(=O)N/N=C/c1cc(Br)ccc1O [BHBM, (E)-N′-(3-bromo-6-hydroxybenzylidene)-2-methylbenzohydrazide]",>1 µg/mL,showed evidence of colonies,30%,20%,50%,10%,11.5 µM,32 µg/mL,16 µg/mL,22 ×10⁻⁶ cm/s,9 ×10⁻⁶ cm/s,9 ×10⁻⁶ cm/s,≤ 4 h,14.3 ×10⁻⁶ cm/s,4.71 ×10⁻⁶ cm/s,~40%,~40%,"day by which all mice died (C. neoformans [2]; [5]): ≤ 30 days; time up to which detected in plasma ([4]; i.v. injection): 8 h; plasma concentration ([4]; i.v., reached within the first hour and remained for about 8 h): 10 ng/mL; Recovery AP→BL (Caco-2 cell line): 41.88%; Recovery BL→AP (Caco-2 cell line): 39.05%"
O=C(N/N=C/c1cc(Br)cc(Br)c1O)c1ccc(Br)cc1 [D13],0.5 µg/mL,only one D13-treated mouse showed evidence of colonies,80%,20%,70%,50%,> 30 µM,> 128 µg/mL,16 µg/mL,6.8 ×10⁻⁶ cm/s,2.2 ×10⁻⁶ cm/s,1.1 ×10⁻⁶ cm/s,≥ 20 h,0.13 ×10⁻⁶ cm/s,< 1 ×10⁻⁶ cm/s,49.8%,107%,"mice that survived until the end of the experiment (C. neoformans [2]; [5]): 40%; CFU in brains and lungs (C. neoformans [2]; [7]): only one D13-treated mouse showed fungal colonies and only in the lung; fungal cells in brains (C. neoformans [2]; [7]): clear of fungal cells; Efflux ratio (Caco-2 cell line): 1.74; efflux ratio at 2 h, 5 μM (Caco-2 permeability; Caco-2, pH 7.4, Efflux ratio): < 2"
